Assay in all cases: CYP inhibition assay in HLM, single concentration
What all share (type): biochemical

In series [1] the target is T1, CYP2B6 (Homo sapiens, UniProt P20813).
T1 construct: Using HLM as the enzyme source; from tissue; host or cells: human liver microsomes
T1 sequence (P20813 1-491): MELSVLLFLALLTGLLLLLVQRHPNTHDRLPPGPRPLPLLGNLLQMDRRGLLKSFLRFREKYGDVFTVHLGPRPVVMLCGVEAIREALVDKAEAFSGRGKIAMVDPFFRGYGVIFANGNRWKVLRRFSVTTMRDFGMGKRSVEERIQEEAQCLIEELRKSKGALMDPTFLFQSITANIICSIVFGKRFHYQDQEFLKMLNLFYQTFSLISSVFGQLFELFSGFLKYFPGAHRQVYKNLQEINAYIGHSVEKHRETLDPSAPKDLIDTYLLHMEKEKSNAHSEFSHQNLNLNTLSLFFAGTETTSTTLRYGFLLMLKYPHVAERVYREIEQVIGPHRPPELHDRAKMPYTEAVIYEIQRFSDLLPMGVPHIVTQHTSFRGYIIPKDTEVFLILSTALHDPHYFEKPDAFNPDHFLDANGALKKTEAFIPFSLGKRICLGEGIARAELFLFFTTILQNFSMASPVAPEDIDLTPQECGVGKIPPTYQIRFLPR
The conditions noted are these: human liver microsomes, probe Bupropion, n = 3, read-out: % Inhibition (CYP 2B6). The method, then: (§1) The regulatory bodies and pharmaceutical firms are quite concerned about CYP inhibition. Therefore, medicinal chemists often change the lead structure to decrease CYP inhibition. If left uncorrected, it can cause DDIs, enhanced drug concentration, and, thus, toxicity.
(§2) Using HLM as the enzyme source, the CYP inhibition potential was employed to assess the inhibitory effect of the TbB ligands on the CYP1A2, 2B6, 2C8, 2C9, 2C19, and 2D6 3A4 isoforms. Phenacetin (CYP1A2, […]), tolbutamide (CYP2C9, 20 mM), bupropion (CYP2B6, […]), mephenytoin (CYP2C19, […]), midazolam (CYP3A4, 5 mM), amodiaquine (CYP2C8, 0.02 mM), and dextromethorphan (CYP2D6, 5 mM) were used as probe substrates. The test substance included TbB ligand (final concentrations of […] for each) and HLMs (final concentration of 0.1 mg protein per mL), with or without 1.0 mM NADPH. The reaction was started by adding pre-incubated 25 μ L of NADPH into all wells and incubate at 37 °C for 10 min for 3A4 and 20 min for remaining all isoforms. The reaction was stopped by adding 100 μ L of stop solution to all wells. The samples were centrifuged at 4000 rpm for 10 min at 4 °C. Supernatant (100 μ L) was withdrawn, mixed with 200 μ L of water followed by LC-MS/MS analysis.
(In general: Liver microsomes are a subcellular fraction often used to study metabolism.)

The target of series [2] is T2, CYP3A4 (Homo sapiens, UniProt P08684).
T2 construct: Using HLM as the enzyme source; from tissue; host or cells: human liver microsomes
Conditions: human liver microsomes, probe Midazolam, n = 3, read-out: % Inhibition (CYP 3A4). The procedure:
as §1, §2

The target of series [3] is T3, CYP1A2 (Homo sapiens, UniProt P05177).
T3 construct: Using HLM as the enzyme source; from tissue; host or cells: human liver microsomes
T3 sequence (P05177 1-516): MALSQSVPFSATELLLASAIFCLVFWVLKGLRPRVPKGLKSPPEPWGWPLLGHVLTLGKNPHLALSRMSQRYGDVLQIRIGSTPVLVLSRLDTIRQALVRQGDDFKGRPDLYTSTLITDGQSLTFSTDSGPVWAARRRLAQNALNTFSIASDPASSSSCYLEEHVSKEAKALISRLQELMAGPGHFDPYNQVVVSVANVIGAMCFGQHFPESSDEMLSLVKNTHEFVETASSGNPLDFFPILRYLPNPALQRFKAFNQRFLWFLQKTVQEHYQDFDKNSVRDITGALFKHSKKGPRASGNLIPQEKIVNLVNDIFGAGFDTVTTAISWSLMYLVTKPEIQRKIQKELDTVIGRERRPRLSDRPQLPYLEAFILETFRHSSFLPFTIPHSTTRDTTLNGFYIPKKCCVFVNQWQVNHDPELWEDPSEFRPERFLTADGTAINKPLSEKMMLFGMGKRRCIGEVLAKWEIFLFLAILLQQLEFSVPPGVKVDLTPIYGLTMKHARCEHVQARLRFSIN
Conditions: human liver microsomes, probe Phenacetin, n = 3, read-out: % Inhibition (CYP 1A2). The method, then:
as §1, §2

In series [4] the target is T4, CYP2C9 (Homo sapiens, UniProt P11712).
T4 construct: Using HLM as the enzyme source; from tissue; host or cells: human liver microsomes
The conditions noted are these: human liver microsomes, probe Tolbutamide, n = 3, read-out: % Inhibition (CYP 2C9). The procedure:
as §1, §2

Series [5] addresses T5, CYP2D6 (Homo sapiens, UniProt P10635).
T5 construct: Using HLM as the enzyme source; from tissue; host or cells: human liver microsomes
The conditions noted are these: human liver microsomes, probe Dextromethorphan, n = 3, read-out: % Inhibition (CYP 2D6). The method, then:
as §1, §2

What is called inhibition is the change of the read-out against control, counted positive when it falls.

T4 sequence (P11712 whole entry): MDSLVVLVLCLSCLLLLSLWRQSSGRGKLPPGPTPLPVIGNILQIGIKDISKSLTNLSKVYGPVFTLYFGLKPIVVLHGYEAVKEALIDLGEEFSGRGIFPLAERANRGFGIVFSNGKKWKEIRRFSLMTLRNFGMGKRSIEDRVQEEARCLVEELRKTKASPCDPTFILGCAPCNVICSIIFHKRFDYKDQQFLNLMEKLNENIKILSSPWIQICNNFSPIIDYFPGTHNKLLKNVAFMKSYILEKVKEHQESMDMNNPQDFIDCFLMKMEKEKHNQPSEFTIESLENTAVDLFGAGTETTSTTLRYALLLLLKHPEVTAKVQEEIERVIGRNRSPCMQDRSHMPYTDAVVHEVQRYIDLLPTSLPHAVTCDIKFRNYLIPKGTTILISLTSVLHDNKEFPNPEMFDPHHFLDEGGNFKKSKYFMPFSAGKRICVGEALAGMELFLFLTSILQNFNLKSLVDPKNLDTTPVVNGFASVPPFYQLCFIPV
T2 sequence (P08684 whole entry): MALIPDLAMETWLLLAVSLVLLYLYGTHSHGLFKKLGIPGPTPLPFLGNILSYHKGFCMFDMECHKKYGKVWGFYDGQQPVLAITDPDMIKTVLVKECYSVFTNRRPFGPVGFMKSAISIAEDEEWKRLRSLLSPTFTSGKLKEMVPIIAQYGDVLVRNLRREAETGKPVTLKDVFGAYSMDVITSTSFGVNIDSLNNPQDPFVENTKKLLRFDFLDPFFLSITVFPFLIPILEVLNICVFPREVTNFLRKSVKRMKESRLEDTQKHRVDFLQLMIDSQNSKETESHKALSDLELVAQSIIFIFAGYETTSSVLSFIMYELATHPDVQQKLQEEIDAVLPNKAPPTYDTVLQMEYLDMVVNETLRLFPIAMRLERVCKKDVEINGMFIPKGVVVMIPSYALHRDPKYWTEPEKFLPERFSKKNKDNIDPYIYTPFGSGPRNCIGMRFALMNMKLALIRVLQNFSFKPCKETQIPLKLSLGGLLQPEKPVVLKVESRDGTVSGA
T5 sequence (P10635 whole entry): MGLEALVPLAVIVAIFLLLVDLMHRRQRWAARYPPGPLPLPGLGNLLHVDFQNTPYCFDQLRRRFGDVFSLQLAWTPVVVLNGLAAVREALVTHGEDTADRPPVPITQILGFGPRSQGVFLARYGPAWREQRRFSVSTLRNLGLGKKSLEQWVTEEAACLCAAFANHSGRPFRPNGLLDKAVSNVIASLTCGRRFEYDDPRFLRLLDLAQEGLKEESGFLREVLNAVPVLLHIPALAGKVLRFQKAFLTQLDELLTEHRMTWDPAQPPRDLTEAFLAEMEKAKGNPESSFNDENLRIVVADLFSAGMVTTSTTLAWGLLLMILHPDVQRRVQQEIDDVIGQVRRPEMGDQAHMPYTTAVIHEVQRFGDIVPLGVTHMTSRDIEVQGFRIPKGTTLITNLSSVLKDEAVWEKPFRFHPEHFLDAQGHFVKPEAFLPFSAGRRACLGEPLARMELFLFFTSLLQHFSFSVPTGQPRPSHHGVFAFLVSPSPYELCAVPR

For `COc1cc(-c2nnn(-c3cc(OC)c(O)c(OC)c3)n2)cc(OC)c1O` [223-2], the inhibition at 20 min, 10 µM is 47% in series [1], 33% in series [3], 68% in series [4] and -2% in series [5]. Besides, the inhibition at 10 min, 10 µM in series [2] is -6%.
In the same order, the values of `Cc1cc(-c2nnn(-c3cc(C)c(O)c(C)c3)n2)cc(C)c1O` [223-3] are 80%, 40%, 82%, 96% and 96%.
Consider `Oc1ccc(-c2nnn(-c3ccc(O)cc3)n2)cc1` [223-10], for which the inhibition at 20 min, 10 µM in series [1] is 54%; in series [3], 30%; in series [4], 90%; in series [5] it was -4%. The inhibition at 10 min, 10 µM in series [2] was found to be 22%.

Source of the values: paper PMC9921896 (Molecules, 2023).
